Measured values taken from patent US7084301B2 (Ranbaxy Laboratories Limited, priority 2003, dated 2006).

What was measured:
[1] = target: T1, human α1A-adrenoceptors (Homo sapiens, UniProt P35348); assay: Radioligand-receptor binding assay, human recombinant α1A-adrenoceptor, [3H]prazosin; settings: human recombinant receptors in CHO cells, mean ± SEM; read-out: pKi α1A (converted)
T1 sequence (P35348 1-466): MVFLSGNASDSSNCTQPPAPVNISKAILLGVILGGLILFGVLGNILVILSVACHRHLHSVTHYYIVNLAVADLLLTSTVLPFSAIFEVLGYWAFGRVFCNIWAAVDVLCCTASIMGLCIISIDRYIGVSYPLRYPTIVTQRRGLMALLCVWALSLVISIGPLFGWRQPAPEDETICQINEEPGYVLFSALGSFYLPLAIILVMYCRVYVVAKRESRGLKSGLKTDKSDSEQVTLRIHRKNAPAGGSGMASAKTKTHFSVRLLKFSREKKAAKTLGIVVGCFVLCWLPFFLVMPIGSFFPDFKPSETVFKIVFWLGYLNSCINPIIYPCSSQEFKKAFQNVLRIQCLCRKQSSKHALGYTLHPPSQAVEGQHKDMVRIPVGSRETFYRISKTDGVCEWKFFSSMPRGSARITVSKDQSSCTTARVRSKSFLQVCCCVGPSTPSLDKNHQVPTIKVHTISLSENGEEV
Protocol: (§1) Chinese hamster ovary (CHO) cells which had been stably transfected with human α1A, α1B, or α1D-adrenoceptors (Keffel et al., Biochem. Biophys. Res. Commun., 2000, 272, 906–11) were cultured in an atmosphere of 5% CO2/95% air at 37° C. in F-12 HAM medium supplemented with 10% heat-inactivated fetal calf serum, 1 mM glutamine, 100 U/ml penicillin and 0.1 mg/ml streptomycin. Selection pressure was maintained by regular addition of geneticin to the culture medium.
(§2) Competitive radioligand binding to the cloned subtypes of […] was performed using [^3H]prazosin as the radioligand as described by Michel et al, Br. J. Pharmacol., 98, 883–889 (1989) with minor modifications. Experiments were performed in binding buffer consisting of 50 mM Tris, 10 mM MgCl2 and 0.5 mM EDTA at pH 7.5 in a total assay volume of 1000 μl. The protein content typically was 40–60 μg/assay. The mixtures were incubated at 25° C. for 45 minutes. Incubations were terminated by rapid vacuum filtration over GF/C filters followed by two washes of the filters each with 10 ml ice-cold incubation buffer. Non-specific binding was defined as binding in the presence of 10 μM phentolamine.
(§3) The IC50 & Kd were estimated by using the non-linear curve fitting program using G Pad Prism software. The value of inhibition constant Ki was calculated from competitive binding studies by using Cheng & Prusoff equation [Cheng & Prusoff, Biochem. Pharmacol., 22, 3099–3108 (1973)], Ki=IC50/(1+L/Kd), where L is the concentration of [^3H] prazosin used in the particular experiment. Kd of [^3H] prazosin was determined from saturation binding studies. The values were tabulated as mean±SEM of pKi values, where pKi is the −log of Ki value.

[2] = target: T2, human α1B-adrenoceptors (Homo sapiens, UniProt P35368); assay: Radioligand-receptor binding assay, human recombinant α1B-adrenoceptor, [3H]prazosin
T2 sequence (P35368 1-520): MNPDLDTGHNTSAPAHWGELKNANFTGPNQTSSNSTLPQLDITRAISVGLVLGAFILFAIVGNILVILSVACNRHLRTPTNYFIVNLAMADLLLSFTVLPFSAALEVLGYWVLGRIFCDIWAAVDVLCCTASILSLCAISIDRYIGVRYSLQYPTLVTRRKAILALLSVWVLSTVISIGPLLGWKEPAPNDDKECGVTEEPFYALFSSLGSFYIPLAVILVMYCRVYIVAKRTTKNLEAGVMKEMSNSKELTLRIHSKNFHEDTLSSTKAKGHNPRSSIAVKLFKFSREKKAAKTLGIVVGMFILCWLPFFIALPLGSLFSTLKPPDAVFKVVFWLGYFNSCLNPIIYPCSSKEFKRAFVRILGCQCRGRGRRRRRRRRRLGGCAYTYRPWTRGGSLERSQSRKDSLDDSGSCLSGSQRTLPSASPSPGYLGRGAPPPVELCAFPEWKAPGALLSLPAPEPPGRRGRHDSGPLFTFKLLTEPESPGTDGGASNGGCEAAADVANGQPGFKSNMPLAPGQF
Protocol: as §1, §2, §3

[3] = target: T3, human α1D-adrenoceptors (Homo sapiens, UniProt P25100); assay: Radioligand-receptor binding assay, human recombinant α1D-adrenoceptor, [3H]prazosin
T3 sequence (P25100 1-572): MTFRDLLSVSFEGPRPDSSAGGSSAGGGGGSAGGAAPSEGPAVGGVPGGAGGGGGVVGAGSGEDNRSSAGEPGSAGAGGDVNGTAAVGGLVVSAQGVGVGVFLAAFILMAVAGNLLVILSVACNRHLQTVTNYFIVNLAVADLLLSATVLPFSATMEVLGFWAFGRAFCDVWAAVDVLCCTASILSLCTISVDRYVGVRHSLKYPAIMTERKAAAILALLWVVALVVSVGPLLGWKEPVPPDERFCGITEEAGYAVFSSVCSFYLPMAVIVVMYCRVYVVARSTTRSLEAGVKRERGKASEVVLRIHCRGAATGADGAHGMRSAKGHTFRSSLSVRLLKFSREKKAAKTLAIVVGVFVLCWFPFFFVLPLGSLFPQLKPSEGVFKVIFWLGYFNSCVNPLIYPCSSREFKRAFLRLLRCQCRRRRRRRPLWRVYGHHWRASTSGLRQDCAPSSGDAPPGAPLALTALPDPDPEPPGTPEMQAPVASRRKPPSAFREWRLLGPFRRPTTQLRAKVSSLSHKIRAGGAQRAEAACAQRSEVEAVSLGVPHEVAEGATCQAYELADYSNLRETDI
Protocol: as §1, §2, §3

Row | SMILES | Ki [1] [nM] | Ki [2] [nM] | Ki [3] [nM]
1 | CCOc1ccccc1OCCN[C@@H](C)Cc1ccc(O)c(S(N)(=O)=O)c1 [(S)-isomer] | 2.24 | 21.9 | 7.94
2 | CCOc1ccccc1OCCNC(C)Cc1ccc(O)c(S(N)(=O)=O)c1 (racemic) [Racemate] | 0.0832 | 1.1 | 0.214
